According to ChEMBL document CHEMBL1201862, “PubChem BioAssay data set” (2004):
Blank lines part the entries; values can stand above or below the compound they belong to. Active and inactive are the calls of the source.

What was measured:
[1] = target: Procathepsin L (Homo sapiens, UniProt P07711)
[2] = system: H9c2; experiment: cells; type: functional, cell-based; settings: Rattus norvegicus, H9c2, Myocardium;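 also: confirmatory concentration-response retest of ultra-high-throughput screening hits for modulation of myocardial damage; cell death induced by hydrogen peroxide oxidative stress; compound pretreatment for 60 min then peroxide exposure for 2 h; potency is for protecting the cells against peroxide damage rather than for killing them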
[3] = target: T1, Aspartyl aminopeptidase (Plasmodium falciparum 3D7, UniProt Q8I2J3)
T1 sequence (Q8I2J3 whole entry): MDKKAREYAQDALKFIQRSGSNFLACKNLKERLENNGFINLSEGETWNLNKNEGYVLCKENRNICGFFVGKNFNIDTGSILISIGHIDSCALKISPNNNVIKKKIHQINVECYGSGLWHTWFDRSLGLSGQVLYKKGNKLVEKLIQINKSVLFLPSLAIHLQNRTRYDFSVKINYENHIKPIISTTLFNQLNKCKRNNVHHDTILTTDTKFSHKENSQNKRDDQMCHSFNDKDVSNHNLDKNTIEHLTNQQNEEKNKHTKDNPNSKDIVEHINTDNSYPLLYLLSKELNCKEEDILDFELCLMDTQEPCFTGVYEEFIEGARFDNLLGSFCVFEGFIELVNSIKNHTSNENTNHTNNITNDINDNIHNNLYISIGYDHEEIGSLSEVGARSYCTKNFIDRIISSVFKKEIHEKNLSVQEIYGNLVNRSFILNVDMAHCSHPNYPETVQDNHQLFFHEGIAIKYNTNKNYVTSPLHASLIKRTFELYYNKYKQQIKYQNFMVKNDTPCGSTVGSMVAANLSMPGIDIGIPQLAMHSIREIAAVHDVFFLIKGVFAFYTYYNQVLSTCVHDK

[4] = system: Streptococcus; experiment: GAS UMAA2166 growth inhibition – luminescence, BacTiterGlo, counter-screen for streptokinase expression inhibitor project, dose response (AID 1915); type: functional, organism-based;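 also: potency for reduction of bacterial viability or growth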
[5] = target: Peroxisome proliferator-activated receptor gamma/Nuclear receptor corepressor 2 (Homo sapiens, UniProt P37231+Q9Y618); type: functional
Sequence of Peroxisome proliferator-activated receptor gamma/Nuclear receptor corepressor 2 (P37231 whole entry): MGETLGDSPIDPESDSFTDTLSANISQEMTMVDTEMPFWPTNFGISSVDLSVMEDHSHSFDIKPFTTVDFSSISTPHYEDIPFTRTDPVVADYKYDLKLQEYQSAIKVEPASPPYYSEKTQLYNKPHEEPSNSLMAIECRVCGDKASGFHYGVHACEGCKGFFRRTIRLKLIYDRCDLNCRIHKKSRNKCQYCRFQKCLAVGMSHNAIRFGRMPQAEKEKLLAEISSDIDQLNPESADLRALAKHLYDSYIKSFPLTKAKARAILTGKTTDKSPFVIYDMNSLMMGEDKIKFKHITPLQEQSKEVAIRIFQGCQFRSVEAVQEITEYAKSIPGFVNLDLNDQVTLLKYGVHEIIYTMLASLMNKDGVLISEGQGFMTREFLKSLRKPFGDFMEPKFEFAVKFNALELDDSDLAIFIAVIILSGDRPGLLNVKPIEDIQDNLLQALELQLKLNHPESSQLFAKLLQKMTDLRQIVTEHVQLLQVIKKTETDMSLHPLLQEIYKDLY
Sequence of Peroxisome proliferator-activated receptor gamma/Nuclear receptor corepressor 2 (Q9Y618 whole entry): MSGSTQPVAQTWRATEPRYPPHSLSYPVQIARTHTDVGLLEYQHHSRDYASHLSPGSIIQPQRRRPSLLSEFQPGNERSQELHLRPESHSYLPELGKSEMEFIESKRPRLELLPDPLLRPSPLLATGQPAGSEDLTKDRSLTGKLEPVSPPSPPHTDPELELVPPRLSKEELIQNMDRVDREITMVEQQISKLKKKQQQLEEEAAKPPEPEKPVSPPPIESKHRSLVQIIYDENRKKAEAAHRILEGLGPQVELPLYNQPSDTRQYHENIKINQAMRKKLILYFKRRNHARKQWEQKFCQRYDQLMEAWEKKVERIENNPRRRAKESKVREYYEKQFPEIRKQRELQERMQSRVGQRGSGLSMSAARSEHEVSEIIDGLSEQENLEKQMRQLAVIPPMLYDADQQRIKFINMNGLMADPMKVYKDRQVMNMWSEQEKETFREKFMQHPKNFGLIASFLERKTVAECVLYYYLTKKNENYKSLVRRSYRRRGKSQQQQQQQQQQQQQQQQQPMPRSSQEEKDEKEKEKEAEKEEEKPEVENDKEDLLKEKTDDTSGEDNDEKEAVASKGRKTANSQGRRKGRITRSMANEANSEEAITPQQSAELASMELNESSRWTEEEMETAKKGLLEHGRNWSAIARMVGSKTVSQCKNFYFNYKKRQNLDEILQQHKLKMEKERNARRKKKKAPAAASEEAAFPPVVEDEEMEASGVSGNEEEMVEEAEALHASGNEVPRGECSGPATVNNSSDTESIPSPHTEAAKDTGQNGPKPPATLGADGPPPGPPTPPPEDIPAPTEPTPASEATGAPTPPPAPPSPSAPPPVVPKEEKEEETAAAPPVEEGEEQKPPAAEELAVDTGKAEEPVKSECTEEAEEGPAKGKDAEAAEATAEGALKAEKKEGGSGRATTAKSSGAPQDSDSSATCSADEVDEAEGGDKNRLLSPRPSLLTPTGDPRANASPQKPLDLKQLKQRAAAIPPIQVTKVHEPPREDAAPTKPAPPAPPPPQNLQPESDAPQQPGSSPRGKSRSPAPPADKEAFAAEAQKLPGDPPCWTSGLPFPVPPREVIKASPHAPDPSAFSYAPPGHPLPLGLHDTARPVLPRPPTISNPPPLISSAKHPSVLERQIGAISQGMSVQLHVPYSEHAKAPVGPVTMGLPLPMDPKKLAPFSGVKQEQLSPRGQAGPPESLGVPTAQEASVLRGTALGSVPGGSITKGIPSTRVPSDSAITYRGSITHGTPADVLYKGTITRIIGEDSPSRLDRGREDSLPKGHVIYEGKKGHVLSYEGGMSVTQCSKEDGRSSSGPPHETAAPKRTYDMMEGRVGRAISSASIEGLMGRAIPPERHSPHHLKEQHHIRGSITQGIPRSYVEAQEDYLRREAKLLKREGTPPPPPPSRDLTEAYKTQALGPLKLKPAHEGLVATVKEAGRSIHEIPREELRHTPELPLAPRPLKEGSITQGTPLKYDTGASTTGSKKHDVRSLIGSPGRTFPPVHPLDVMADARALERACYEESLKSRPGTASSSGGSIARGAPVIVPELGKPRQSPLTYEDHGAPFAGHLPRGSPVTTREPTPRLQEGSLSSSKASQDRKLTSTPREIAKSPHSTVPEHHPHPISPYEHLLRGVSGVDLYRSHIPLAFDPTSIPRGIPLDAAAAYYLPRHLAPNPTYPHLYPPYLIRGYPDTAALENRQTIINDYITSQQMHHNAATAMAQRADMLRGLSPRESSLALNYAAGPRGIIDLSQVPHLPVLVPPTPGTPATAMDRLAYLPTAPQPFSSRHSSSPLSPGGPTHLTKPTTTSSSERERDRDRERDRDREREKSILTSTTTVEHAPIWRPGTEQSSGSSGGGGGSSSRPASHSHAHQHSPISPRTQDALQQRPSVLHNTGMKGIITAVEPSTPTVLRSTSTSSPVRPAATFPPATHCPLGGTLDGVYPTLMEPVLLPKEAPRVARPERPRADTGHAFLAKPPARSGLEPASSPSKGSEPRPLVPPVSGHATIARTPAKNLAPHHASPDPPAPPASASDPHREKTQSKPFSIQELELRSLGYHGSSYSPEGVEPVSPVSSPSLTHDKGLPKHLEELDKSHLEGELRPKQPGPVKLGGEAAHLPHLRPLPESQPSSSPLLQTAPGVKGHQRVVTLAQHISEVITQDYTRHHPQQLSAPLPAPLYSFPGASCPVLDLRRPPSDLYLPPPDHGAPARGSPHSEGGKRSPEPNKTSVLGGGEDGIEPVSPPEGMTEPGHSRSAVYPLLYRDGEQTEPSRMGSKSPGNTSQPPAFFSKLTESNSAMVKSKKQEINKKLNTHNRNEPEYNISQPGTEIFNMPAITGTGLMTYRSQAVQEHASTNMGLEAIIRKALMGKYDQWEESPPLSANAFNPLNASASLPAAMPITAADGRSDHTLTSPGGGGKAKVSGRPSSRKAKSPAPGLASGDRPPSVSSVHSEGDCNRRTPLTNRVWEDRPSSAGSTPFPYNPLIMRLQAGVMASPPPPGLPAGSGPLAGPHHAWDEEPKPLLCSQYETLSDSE

[6] = target: NAD-dependent protein deacylase sirtuin-5, mitochondrial (Homo sapiens, UniProt Q9NXA8); experiment: sirtuin-5 deacylation blockers, concentration series – biochemical, fluorescence imaging, cherry-pick, set 5, dose response (AID 720591);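 also: desuccinylation of succinyl peptide AMC substrate read as fluorescence after trypsin release; potency of inhibitors that lower fluorescence and may act on trypsin instead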
Sequence of NAD-dependent protein deacylase sirtuin-5, mitochondrial (Q9NXA8 whole entry): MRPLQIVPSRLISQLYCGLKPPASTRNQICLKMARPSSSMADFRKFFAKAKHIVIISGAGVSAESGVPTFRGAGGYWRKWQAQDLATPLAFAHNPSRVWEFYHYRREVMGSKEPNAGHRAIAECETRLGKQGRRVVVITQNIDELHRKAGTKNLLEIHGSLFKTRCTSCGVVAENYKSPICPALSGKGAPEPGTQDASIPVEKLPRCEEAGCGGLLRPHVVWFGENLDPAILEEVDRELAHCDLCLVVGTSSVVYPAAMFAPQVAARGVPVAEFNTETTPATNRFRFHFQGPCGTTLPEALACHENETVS

[7] = target: Photoreceptor-specific nuclear receptor (Homo sapiens, UniProt Q9Y5X4); type: functional;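 also: potency for compounds that break the NR2E3 corepressor complex and count as activators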
[8] = system: Streptococcus sp. 'group A'; experiment: Streptococcus pyogenes SK(-)GAS viability under kanamycin – luminescence, BacTiterGlo, confirmation, counter-screen for streptokinase expression inhibitor project, dose response (AID 1900); type: functional, organism-based
[9] = target: T2, Ion channel NompC (Danio rerio, UniProt Q7T1G6); experiment: activators of mucolipin-3 and mucolipin-2 – cell-based, […], Fura-2 profiling panel, panel member TRPN1 Dose Response (AID 2116)
T2 sequence (Q7T1G6 whole entry): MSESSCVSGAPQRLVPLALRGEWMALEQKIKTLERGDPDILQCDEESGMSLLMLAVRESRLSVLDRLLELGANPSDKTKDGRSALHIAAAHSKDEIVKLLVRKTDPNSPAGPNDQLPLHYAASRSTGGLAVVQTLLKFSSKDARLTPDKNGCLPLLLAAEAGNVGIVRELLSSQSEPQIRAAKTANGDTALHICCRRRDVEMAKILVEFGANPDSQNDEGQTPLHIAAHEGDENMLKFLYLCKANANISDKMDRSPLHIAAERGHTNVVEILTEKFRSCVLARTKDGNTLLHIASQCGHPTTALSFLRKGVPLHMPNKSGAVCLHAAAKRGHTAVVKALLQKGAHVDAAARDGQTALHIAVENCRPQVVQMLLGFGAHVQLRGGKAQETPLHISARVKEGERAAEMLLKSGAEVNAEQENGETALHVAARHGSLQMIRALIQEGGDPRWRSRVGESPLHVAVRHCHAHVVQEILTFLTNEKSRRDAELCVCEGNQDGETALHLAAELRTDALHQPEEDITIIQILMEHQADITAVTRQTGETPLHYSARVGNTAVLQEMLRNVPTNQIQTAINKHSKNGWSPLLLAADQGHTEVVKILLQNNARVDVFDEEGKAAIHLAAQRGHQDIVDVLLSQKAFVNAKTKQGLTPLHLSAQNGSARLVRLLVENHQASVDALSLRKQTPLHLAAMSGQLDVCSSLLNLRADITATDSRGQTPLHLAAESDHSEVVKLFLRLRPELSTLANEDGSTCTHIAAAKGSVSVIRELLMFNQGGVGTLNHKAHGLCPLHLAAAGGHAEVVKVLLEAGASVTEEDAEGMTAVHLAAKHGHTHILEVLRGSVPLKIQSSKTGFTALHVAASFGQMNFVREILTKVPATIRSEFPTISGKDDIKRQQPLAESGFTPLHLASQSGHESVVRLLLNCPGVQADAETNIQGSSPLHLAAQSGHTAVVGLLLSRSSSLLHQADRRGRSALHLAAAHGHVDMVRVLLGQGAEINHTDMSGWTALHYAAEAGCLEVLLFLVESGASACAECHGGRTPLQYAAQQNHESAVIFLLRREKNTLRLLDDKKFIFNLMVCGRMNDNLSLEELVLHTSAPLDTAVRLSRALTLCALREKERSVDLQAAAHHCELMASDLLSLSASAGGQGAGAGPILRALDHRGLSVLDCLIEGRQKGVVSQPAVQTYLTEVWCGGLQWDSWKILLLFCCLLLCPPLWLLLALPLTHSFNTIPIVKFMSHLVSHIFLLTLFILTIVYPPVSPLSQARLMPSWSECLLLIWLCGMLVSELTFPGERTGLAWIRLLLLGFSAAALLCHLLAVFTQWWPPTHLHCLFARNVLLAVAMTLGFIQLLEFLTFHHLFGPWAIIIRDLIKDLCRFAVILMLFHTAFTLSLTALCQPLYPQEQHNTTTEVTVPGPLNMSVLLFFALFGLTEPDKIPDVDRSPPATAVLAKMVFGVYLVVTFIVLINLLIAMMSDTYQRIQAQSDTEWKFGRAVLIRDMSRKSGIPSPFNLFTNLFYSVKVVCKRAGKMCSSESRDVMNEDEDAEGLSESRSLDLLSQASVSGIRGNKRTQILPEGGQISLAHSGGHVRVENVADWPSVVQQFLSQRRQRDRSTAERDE

[10] = target: T3, Mucolipin-3 (Homo sapiens, UniProt Q8TDD5); experiment: Dose response cell-based high-throughput screening assay for agonists of the transient receptor potential channel ML3 (TRPML3). [Related pubchem assays: 1526, 1424, 1448 ]; type: functional
T3 sequence (Q8TDD5 whole entry): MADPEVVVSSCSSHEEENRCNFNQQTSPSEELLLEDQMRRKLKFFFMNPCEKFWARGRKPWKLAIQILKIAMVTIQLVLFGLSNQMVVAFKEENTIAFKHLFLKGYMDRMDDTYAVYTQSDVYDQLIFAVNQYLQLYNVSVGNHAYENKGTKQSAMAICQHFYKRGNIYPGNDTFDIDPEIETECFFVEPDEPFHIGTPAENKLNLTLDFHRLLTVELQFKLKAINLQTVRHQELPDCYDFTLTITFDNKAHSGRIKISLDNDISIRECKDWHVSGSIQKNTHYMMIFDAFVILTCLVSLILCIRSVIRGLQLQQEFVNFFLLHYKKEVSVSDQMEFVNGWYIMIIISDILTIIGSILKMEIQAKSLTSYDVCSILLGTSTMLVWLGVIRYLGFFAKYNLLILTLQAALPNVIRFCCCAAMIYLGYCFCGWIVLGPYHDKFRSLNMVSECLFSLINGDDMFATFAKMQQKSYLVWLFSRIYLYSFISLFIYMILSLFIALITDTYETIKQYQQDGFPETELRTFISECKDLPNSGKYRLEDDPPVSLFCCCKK

[11] = target: T2, Ion channel NompC; experiment: Fluorescence counterscreen assay for TRPML3 agonists: dose response cell-based high-throughput screening assay to identify agonists of the transient receptor potential channel N1 (TRPN1). [Related pubchem assays: 1526, 1424, 1448 ]; type: functional
[12] = target: Cytochrome P450 2C9 (Homo sapiens, UniProt P11712); settings: Potency

Structure (SMILES): CCOC(=O)Cc1csc(NC(=O)NC2(C(F)(F)F)Oc3ccccc3O2)n1
- IC50 [1]: > 59.6 µM (not active)
- IC50 [2]: 17.5 µM (active)
- IC50 [3]: 3.02 µM (active)

Structure (SMILES): Cc1cc(N2C(=O)C(O)=C(C(=O)c3cc4ccccc4o3)C2c2ccc(Br)cc2)no1 (configuration not stated)
- EC50 [4]: 2.78 µM (active)
- IC50 [5]: 2.92 µM (active)
- AC50 [6]: 17.5 µM (active)
- IC50 [7]: > 39.8 µM (not active)
- EC50 [8]: 2.01 µM (active)

- EC50 [9]: > 29.9 µM (inactive)
- EC50 [10]: 1.36 µM (active)
- EC50 [11]: > 29.9 µM (not active)
Structure (SMILES): O=S(=O)(Nc1ccccc1N1CCOCC1)c1ccc(Cl)s1

- AC50 [12]: 39.8 µM (inconclusive)
Structure (SMILES): CC(C)C[C@@H](CC(=O)N[C@H](CC(=O)N[C@@H]1CCCC[C@H]1C(=O)N[C@H](CC(=O)N[C@@H](CCC(=O)O)CC(=O)O)CC(C)C)C(C)C)NC(=O)[C@@H]1CCCC[C@H]1N
